According to US20260256738A1, “METHODS OF TREATING CANCER WITH A RAS MUTATION” (Immuneering Corporation, priority 2023, published 2026):
Where two headings read alike, the source gives them in different places. One block for each compound: values may come before it.

Legend:
[1] = cited from earlier work
[2] = Human plasma pharmacokinetics of approved MEK inhibitors; format: in vivo; settings: human dosing cycle
[3] = Plasma Stability (% remaining @2 hour); format: in vitro ADME; settings: Beagle Dog; 2 μM
[4] = Plasma Stability (% remaining @2 hour); format: in vitro ADME; settings: CD-1 Mouse; 2 μM
[5] = Plasma Stability (% remaining @2 hour); format: in vitro ADME; settings: Human; 2 μM
[6] = Plasma Stability (% remaining @2 hour); format: in vitro ADME; settings: SD Rat; 2 μM
[7] = biological target: CYP450 2C19 (Homo sapiens, UniProt P33261); test: CYP450 Panel; format: in vitro ADME; settings: 10 μM; substrate mephenytoin; in % (unit assumed)
[8] = biological target: T1, CYP450 2C8 (Homo sapiens, UniProt P10632); test: CYP450 Panel; format: in vitro ADME; settings: 10 μM; substrate amodiaquine
T1 sequence (P10632 1-490): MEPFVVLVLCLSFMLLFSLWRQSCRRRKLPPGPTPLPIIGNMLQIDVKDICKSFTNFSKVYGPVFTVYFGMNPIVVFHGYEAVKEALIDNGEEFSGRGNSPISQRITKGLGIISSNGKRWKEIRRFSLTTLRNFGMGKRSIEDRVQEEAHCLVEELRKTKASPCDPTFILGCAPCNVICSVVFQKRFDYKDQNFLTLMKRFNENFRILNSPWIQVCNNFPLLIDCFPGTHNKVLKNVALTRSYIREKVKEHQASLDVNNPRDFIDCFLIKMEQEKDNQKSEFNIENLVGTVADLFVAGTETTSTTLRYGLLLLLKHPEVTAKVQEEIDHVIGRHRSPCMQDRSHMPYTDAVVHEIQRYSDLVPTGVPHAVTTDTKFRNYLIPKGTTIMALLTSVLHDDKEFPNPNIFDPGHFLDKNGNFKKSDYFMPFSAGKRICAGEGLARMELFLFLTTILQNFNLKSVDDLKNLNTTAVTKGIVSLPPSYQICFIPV

[9] = biological target: T2, CYP450 2D6 (Homo sapiens, UniProt P10635)
[10] = test system: Caco-2; test: Caco-2 permeability; settings: 10 μM, 2 hrs
[11] = biological target: T2, CYP450 2D6; test: CYP450 Panel; settings: 10 μM; substrate dextromethorphan; in % (unit assumed)
[12] = Microsome Stability (% remaining @1 hour); format: in vitro ADME; settings: Human; 2 μM
[13] = Microsome Stability (% remaining @1 hour); format: in vitro ADME; settings: Beagle Dog; 2 μM
[14] = Microsome Stability (% remaining @1 hour); settings: CD-1 Mouse; 2 μM
[15] = Tissue pharmacokinetics in Colon-26 tumor bearing mice, 2-hour post dose; format: in vivo; settings: single dose 100 mg/kg p.o.
Procedure: Female mice (either athymic BALC/c nude, or BALB/c mice) were inoculated with a single subcutaneous injection of 0.2 ml of mouse Colon-26 cell suspension (1×10^5 cells per animal) in the inguinal region. Colon26 (C26) tumor bearing mice received a single dose (3 mice/treatment) of vehicle (10% DMSO/90% [20% SBE-R-CD in saline], pH 5) containing compounds at 100 mg/kg by gavage (p.o.) and 2-hour post dose humanely euthanized.
Blood was obtained through cardiac puncture into K+EDTA tubes, mixed by inversion and centrifuged to obtain the plasma. Tissues were excised, cleaned of surrounding tissues. All samples immediately snap frozen in liquid N2 prior to LC-MS/MS analysis (using Waters HSS T3 2.1×50 mm (1.8 um) LC column, and an API-6500 Electrospray MS unit).

[16] = Microsome Stability (% remaining @1 hour); format: in vitro ADME; settings: SD Rat; 2 μM
[17] = biological target: CYP450 3A4 (Homo sapiens, UniProt P08684); test: CYP450 Panel; format: in vitro ADME; settings: 10 μM; for CYP450 Panel 3A4 (midazolam): substrate midazolam; for CYP450 Panel 3A4 (testosterone): substrate testosterone
[18] = biological target: T3, CYP450 1A2 (Homo sapiens, UniProt P05177); test: CYP450 Panel; settings: 10 μM; substrate phenacetin; in % (unit assumed)
T3 sequence (P05177 1-516): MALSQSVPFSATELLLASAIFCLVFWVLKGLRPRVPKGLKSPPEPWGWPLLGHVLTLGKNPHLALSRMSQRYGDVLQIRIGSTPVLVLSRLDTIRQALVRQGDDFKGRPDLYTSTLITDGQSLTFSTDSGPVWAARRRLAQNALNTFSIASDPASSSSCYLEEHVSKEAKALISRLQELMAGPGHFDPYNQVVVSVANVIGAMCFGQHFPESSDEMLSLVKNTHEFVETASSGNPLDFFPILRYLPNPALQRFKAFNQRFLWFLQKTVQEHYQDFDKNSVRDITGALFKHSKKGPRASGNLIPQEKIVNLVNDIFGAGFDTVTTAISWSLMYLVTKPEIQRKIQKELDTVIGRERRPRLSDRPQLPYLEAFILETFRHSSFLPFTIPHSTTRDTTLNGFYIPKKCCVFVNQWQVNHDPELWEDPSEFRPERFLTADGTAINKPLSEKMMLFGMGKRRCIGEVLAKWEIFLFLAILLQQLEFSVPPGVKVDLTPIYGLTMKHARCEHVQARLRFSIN

[19] = eLogD (lipophilicity; pH=7.4); format: physicochemical
Procedure: Test compounds were dissolved in DMSO at a concentration of 10 mM and further diluted with methanol:water 1:1. Samples were analyzed using gradient HPLC with three different isocratic mobile phases of 0.25% octanol in methanol (60, 65 and 70%) and 20 mM MOPS buffer (pH 7.4) with decylamine. If needed, (for low E log Doct compounds) the isocratic mobile phases were adjusted to e.g. 40, 45 and 50% methanol. Peaks were detected using a diode array at absorbance 220-320 nm.
Capacity factors data (k′_(tr−_t0)/t0) obtained at various amounts of methanol were extrapolated to 0% methanol and k′w values are determined using a linear procedure. E log Doct (7.4) is calculated using a series of reference standards with known Log D values. Each experiment was performed in triplicate.

[20] = test system: pERK in A549 (KRAS-G12S); test: Cell-based pERK dose response / phospho-ERK screen in A549; parameters: species or system Human; settings: A549 (KRAS G12S), 10 μM for 2 hours
Procedure: Materials and Methods: A549 or A375 cells were seeded in 6-well plates at an appropriate seeding density on day 0. On day 2 or 3, after checking the health and confluency of cells, the media was aspirated and replaced with 1 mL media containing a predetermined concentration of compound and incubated for 2 hours. After 2 hours, the media was aspirated, and the cells washed 2 times with cold PBS. Cells were lysed on ice, with 50 μL 1× CST lysis buffer+1 mM PMSF for 5 minutes. After 5 minutes, cells were removed using a scraper and transferred to cold 1.5 mL tubes, and centrifuged for 10 min, 4° C., 14,000×g. Supernatant was gently removed and snap frozen in liquid nitrogen. Protein concentration of the lysate was determined using Bradford Reagent (analyzed using SpectraMax M2E) and diluted to 1 mg/mL or pERK or 1.5 mg/mL for pMEK analysis. […] All dilutions were in Milk-free antibody diluent.

[21] = biological target: T4, CYP450 2B6 (Homo sapiens, UniProt P20813); test: CYP450 Panel; format: in vitro ADME; settings: 10 μM; substrate bupropion
T4 sequence (P20813 1-491): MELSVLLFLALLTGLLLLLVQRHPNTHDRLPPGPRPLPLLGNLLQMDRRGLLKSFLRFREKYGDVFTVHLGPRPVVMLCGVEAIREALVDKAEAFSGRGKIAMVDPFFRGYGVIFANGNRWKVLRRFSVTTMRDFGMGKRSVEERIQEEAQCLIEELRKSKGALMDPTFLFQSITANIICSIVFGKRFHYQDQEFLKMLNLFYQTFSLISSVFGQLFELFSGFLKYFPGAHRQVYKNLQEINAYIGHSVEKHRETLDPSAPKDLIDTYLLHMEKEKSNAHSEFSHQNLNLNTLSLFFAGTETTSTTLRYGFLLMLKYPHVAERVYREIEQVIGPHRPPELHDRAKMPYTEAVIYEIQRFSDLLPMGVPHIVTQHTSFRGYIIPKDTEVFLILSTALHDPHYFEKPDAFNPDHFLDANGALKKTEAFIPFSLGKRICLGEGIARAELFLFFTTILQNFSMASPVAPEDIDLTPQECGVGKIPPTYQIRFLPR

[22] = Caco-2 permeability; settings: human
[23] = biological target: CYP450 2C9 (Homo sapiens, UniProt P11712); test: CYP450 Panel; format: in vitro ADME; settings: 10 μM; substrate Diclofenac; in % (unit assumed)
[24] = biological target: hERG Channel (Homo sapiens, UniProt Q12809); test: biochemical
[25] = test system: Caco-2

CYP450 3A4, sequence (P08684 whole entry): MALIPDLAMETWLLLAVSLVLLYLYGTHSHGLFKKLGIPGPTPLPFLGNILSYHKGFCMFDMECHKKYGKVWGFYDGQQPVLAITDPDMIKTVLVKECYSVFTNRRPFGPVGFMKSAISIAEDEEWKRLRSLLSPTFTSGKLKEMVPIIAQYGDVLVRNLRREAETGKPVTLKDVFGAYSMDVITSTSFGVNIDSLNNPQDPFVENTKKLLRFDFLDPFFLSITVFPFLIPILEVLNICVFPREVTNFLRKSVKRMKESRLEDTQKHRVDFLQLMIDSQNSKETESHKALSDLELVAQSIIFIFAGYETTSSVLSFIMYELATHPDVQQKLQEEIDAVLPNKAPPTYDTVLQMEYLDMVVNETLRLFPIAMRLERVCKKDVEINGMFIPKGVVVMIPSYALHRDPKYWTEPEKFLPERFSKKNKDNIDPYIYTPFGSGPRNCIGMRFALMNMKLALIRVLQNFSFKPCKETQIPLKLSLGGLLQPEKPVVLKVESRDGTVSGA
T2 sequence (P10635 whole entry): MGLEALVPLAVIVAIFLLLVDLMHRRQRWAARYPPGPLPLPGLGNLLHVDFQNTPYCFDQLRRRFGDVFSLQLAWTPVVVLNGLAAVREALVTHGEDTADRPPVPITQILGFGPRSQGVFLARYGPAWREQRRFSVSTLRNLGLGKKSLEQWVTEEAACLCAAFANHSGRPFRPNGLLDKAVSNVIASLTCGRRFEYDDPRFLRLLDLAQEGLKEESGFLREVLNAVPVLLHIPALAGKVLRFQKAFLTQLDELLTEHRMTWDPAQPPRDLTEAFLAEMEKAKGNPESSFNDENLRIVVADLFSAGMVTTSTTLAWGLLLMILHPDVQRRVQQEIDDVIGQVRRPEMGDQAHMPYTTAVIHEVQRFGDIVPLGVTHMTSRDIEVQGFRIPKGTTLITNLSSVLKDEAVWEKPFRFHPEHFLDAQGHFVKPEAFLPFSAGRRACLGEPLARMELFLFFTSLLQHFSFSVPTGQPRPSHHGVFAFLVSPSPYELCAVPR
CYP450 2C19, sequence (P33261 whole entry): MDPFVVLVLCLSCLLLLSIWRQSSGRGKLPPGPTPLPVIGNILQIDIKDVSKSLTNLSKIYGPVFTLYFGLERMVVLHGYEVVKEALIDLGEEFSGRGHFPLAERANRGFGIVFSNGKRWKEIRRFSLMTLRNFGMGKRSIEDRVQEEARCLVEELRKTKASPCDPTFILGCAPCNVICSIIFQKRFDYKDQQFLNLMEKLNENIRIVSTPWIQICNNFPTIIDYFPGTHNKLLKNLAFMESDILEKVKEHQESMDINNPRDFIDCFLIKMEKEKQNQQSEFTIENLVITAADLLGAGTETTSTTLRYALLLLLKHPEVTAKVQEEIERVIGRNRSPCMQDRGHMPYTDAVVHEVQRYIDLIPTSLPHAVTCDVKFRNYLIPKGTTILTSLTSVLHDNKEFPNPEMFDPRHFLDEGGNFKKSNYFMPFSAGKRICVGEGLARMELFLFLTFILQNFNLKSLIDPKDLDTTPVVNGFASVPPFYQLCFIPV
CYP450 2C9, sequence (P11712 whole entry): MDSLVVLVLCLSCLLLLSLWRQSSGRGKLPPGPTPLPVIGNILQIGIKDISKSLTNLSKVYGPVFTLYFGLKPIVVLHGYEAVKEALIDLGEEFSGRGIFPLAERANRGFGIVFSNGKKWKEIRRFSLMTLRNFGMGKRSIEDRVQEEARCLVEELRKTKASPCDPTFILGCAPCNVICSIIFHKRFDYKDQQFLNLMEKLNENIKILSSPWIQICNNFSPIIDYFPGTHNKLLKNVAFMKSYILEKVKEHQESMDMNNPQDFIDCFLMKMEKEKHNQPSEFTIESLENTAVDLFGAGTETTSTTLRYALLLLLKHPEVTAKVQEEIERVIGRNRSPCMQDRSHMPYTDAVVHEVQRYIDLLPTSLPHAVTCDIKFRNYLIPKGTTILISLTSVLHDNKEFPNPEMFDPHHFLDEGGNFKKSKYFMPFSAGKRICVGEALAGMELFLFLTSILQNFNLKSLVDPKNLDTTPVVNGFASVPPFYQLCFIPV
hERG Channel, sequence (Q12809 whole entry): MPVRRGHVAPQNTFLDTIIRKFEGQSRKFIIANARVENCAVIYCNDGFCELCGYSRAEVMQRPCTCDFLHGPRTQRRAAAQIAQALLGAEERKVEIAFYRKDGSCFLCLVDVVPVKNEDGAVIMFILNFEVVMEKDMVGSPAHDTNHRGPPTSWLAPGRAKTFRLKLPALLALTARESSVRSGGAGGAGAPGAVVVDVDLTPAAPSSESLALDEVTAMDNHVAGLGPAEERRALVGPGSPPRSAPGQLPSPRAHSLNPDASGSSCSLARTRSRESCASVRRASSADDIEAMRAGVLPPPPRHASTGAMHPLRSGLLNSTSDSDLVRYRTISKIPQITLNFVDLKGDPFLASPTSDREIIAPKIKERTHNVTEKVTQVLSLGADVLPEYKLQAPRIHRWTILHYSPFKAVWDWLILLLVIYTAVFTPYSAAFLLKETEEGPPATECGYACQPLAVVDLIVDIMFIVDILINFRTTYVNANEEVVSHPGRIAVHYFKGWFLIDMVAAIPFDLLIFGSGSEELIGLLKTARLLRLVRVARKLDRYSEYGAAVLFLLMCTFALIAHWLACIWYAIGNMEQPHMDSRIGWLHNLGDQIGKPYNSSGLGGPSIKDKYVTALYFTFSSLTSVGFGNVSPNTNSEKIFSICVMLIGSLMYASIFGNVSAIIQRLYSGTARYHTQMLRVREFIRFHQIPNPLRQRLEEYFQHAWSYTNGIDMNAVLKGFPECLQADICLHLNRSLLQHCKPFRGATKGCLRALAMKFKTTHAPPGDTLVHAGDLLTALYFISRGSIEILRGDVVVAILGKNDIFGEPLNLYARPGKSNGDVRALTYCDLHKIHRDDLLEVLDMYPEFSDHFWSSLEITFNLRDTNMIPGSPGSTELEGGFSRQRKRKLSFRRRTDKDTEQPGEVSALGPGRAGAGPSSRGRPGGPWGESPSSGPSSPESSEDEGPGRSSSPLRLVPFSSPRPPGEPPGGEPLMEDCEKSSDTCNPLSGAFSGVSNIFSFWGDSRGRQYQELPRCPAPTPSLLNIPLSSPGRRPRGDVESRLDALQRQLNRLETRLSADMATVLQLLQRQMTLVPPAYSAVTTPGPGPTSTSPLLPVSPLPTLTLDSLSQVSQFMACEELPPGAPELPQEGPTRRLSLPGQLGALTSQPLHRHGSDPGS

SMILES: Cn1cnc2c(F)c(Nc3ccc(Br)cc3F)c(C(=O)NOCCO)cc21 [Binimetinib]
half-life ([1]; in vivo): 3.5 h | half-lives per (BID) cycle [2]: ≤ 3.4 half-lives

SMILES: CC[C@H](C)C(=O)O[C@H]1C[C@@H](C)C=C2C=C[C@H](C)[C@H](CC[C@@H]3C[C@@H](O)CC(=O)O3)[C@H]21 [Lovastatin]
Plasma stability, % Remaining @2 hour [3]: 94.1% | Plasma stability, % Remaining @2 hour [4]: 0.6% | Plasma stability, % Remaining @2 hour [5]: 81.8% | Plasma stability, % Remaining @2 hour [6]: 0.6%

SMILES: COc1ccc2[nH]c([S+]([O-])Cc3ncc(C)c(OC)c3C)nc2c1 (stereo not drawn) [Omeprazole]
CYP450 Panel 2C19 [7]: 61.6

SMILES: C=C[C@H]1C[N@@]2CC[C@H]1C[C@@H]2[C@@H](O)c1ccnc2ccc(OC)cc12 [Quinidine]
CYP450 Panel 2D6 [9]: 99.7

SMILES: CNC(=C[N+](=O)[O-])NCCSCc1ccc(CN(C)C)o1 [Ranitidine]
A − B Permeability Ranking [10]: Low

SMILES: CNS(=O)(=O)Nc1cccc(Cc2c(C)c3ccc(OC(=O)N(C)C)cc3oc2=O)c1F [Reference 7]
CYP450 Panel 2D6 [11]: −7.4 | Microsome stability, % Remaining @1 hour [12]: 61.1% | Microsome stability, % Remaining @1 hour [13]: 57.0% | Plasma stability, % Remaining @2 hour [3]: 99.8% | Microsome stability, % Remaining @1 hour [14]: 29.6% | pERK: total ERK (% relative to vehicle) ([20]; Table 8A): 0.53% | pERK: total ERK (% relative to vehicle) ([20]; Table 8B): 3.33% | CYP450 Panel 2C8 [8]: 14.4% | CYP450 Panel 2C19 [7]: 11.6 | Microsome stability, % Remaining @1 hour [16]: 2.7% | Plasma stability, % Remaining @2 hour [4]: 56.5% | Plasma stability, % Remaining @2 hour [5]: 88.1% | CYP450 Panel 2B6 [21]: 28.5% | CYP450 Panel 3A4 (midazolam) [17]: 29.9% | CYP450 Panel 3A4 (testosterone) [17]: 59.7% | Plasma stability, % Remaining @2 hour [6]: 77.3% | Papp A→B at 2 h, 10 μM [22]: 14.4 ×10⁻⁶ cm/s | Papp B→A at 2 h, 10 μM [22]: 10 ×10⁻⁶ cm/s | efflux ratio at 2 h, 10 μM [22]: 0.695 | A − B Permeability Ranking [10]: High | CYP450 Panel 1A2 [18]: 0.3 | CYP450 Panel 2C9 [23]: 33.8 | IC50 [24]: 28.6 µM

SMILES: Nc1ccc(S(=O)(=O)Nc2ccnn2-c2ccccc2)cc1 [Sulfaphenazole]
CYP450 Panel 2C9 [23]: 101.2

SMILES: O=C(c1ccc(F)c(F)c1Nc1ccc(I)cc1F)N1CC(O)([C@@H]2CCCCN2)C1 [cobimetinib]
Tmax ([1]; human): 2.4 h | human plasma half-life ([1]; human): 44 h | half-lives per (BID) cycle [2]: ≤ 0.55 half-lives

Further lines, with some results ahead:

Plasma stability, % Remaining @2 hour [3]: 58.4% | Plasma stability, % Remaining @2 hour [4]: 27.1% | Plasma stability, % Remaining @2 hour [5]: 5.7% | Plasma stability, % Remaining @2 hour [6]: 92.6%
SMILES: CC(C)[N+](C)(CCOC(=O)C1c2ccccc2Oc2ccccc21)C(C)C [Propantheline]

CYP450 Panel 2C8 [8]: 93.1%
SMILES: O=c1c(O)c(-c2ccc(O)c(O)c2)oc2cc(O)cc(O)c12 [Quercetin]

CYP450 Panel 2D6 [11]: 3.4 | Microsome stability, % Remaining @1 hour [12]: 107.1% | Microsome stability, % Remaining @1 hour [13]: 111.6% | Plasma stability, % Remaining @2 hour [3]: 99.8% | Microsome stability, % Remaining @1 hour [14]: 96.0% | CYP450 Panel 2C19 [7]: −0.9 | Liver concentration [15]: 1990 ng/g | Muscle concentration [15]: 550 ng/g | Plasma concentration [15]: 5670 ng/mL | Tumor concentration [15]: 819 ng/g | Microsome stability, % Remaining @1 hour [16]: 102.0% | Plasma stability, % Remaining @2 hour [4]: 92.9% | Plasma stability, % Remaining @2 hour [5]: 91.1% | CYP450 Panel 3A4 (midazolam) [17]: 16.6% | CYP450 Panel 3A4 (testosterone) [17]: 15.7% | Plasma stability, % Remaining @2 hour [6]: 99.8% | A − B Permeability Ranking [10]: High | CYP450 Panel 1A2 [18]: 0.8 | eLogD (lipophilicity; pH = 7.4) [19]: 3.6
SMILES: CNS(=O)(=O)Nc1nccc(Cc2c(C)c3ccc(Oc4ncccn4)cc3oc2=O)c1F [Reference 2]

A − B Permeability Ranking [25]: High
SMILES: CC(=O)CC(c1ccccc1)c1c(O)c2ccccc2oc1=O (stereo not drawn) [Warfarin]

half-lives per (BID) cycle [2]: ≤ 0.25 half-lives
SMILES: CC(=O)Nc1cccc(-n2c(=O)n(C3CC3)c(=O)c3c(Nc4ccc(I)cc4F)n(C)c(=O)c(C)c32)c1 [trametinib]
human plasma half-life ([1]; human): 96 h
